According to US9802064B2, “Microcapsule comprising glycoprotein derived from plants” (AMOREPACIFIC CORPORATION, priority 2012, dated 2017):

Test: DPPH assay of anti-oxidative (radical scavenging) activity
Format: biochemical
Conditions: 100 μM DPPH, 37° C., 30 minutes, absorbance 517 nm; FIG. 7
Protocol: To evaluate anti-oxidative activity, DPPH (1,1-diphenyl-2-picrylhydrazyl) assay was carried out. The samples used in this test (Doore Co., Ltd.) are as follows.
DPPH assay is a test in which an oxidant called DPPH is used to initiate oxidation and the ability of a sample to be tested in removing radicals is determined. When DPPH meets a material having anti-oxidative activity, it […] electrons to cause radical removing and undergoes a change in color from purple to yellow. Thus, it is possible to observe the oxidative activity of a material easily with the naked eye.
Each sample was introduced to a 96-well plate in an amount of 10 μl, and 100 μM of DPPH was introduced thereto in an amount of 190 μl. After carrying out reaction at 37° C. for 30 minutes, the absorbance was measured at 517 nm. Vitamin C was used as positive control (10, 5, 2.5 μg/ml).

For sodium caseinate [ISAI-022], the “anti-oxidative activity (DPPH radical scavenging)” value was “no radical scavenging activity”.
